IC50 data for two molecules are collected here from US11912723B2, “KRAS modulators and uses thereof” (Quanta Therapeutics, Inc., priority 2022, dated 2024).

The target of one assay is T1, KRAS G12V/RAF1 (Homo sapiens, UniProt P01116, G12V).
T1 construct: KRAS (1-169) proteins were expressed in E. coli at 18° C; His6-MBP (N, cleaved yes); made in house; host or cells: E. coli
Kind of assay: Protein-protein interaction (PPI) HTRF assay KRAS G12V/RAF1. Format: binding. The note with it: KRASG12V/RAF1. As for the experimental part: (§1) Biotinylated KRAS wt and KRAS G12DNV proteins were expressed and purified in conditions similar to those previously reported (Tran, et al., 2021) (Zhang, et al., 2020). Briefly, KRAS (1-169) proteins were expressed in E. coli at 18° C. with an upstream TEV cleavage site (ENLFYQS) followed an Avi tag sequence ([…]). KIRAS expression constructs contained both a His6 and maltose-binding protein (MBP) tags at the N-terminus for Ni-NTA column purification prior to overnight TEV cleavage and MBP column purification. The avi-tagged NRAS expression construct contained both a His6 tag and SUMO cleavage sige at the N-terminus for Ni-NTA column purification followed by His-ULP1 digestion overnight. All avi-tagged RAS proteins were dialyzed into buffer containing ATP, biotin, and BirA followed by purification over a second Ni-NTA column and then run over a size exclusion HiLoad™ 26/600 Superdex™ column in 20 mM HEPES, pH 7.5, 300 mM NaCl, 5 mM MgCl2, and 1 mM TCEP. Fractions containing the protein of interest were pooled, concentrated, and confirmed by intact mass spectrometry. To prepare ‘GTP’ loaded KRAS and NRAS, biotinylated KRAS or NRAS was nucleotide exchanged from GDP-bound protein to GppNHp-bound (Jena Biosciences, NU-401-50) protein in the presence of alkaline phosphatase and excess GppNHp as previously described and the resulting nucleotide content was confirmed by HPLC reverse phase analytical chromatography (Donohue, et al., 2019) (Tran, et al., 2021).
(§2) His-tagged RAF1 (52-131) was similarly expressed in E. coli at 18° C. overnight with an upstream TEV cleavage site. His-tagged RAF1 expression construct contained both a His6 and MBP tags at the N-terminus for Ni-NTA column purification followed by MBP-tagged TEV digestion overnight. RAF1 protein samples were further purified over a MBP column followed by a Ni-NTA column and a second MBP column. The fractions containing the protein of interest were pooled, concentrated, and further purified over a HiLoad™ 16/600 Superdex™ 75 pg size exclusion column into 20 mM HEPES, pH8.0, 200 mM NaCl, 5 mM TCEP.
(§3) When RAS proteins are in the active GTP-bound conformation, they bind the effector protein RAF1 at the N-terminus Ras-binding domain (RBD, residues 52-131) (Tran, et al., 2021). Homogenous time resolved fluorescence (HTRF) was used to monitor the interaction between wt or mutant KRAS and RAF1 or wt NRAS and RAFT. Compounds were assayed in the presence of KRAS G12D/V and RAF1 versus wt KRAS to assess activity against mutant and w.t. KRAS. Similarly, compounds were then assayed in the presence of w.t. NRAS and RAF1 to assess RAS isoform selectivity. In all assay formats, His-tagged RAF1 protein was incubated with the HTRF donor, anti-6His Tb Cryptate gold (Cisbio 61DB10RDF), and biotinylated RAS proteins were incubated with the HTRF acceptor, streptavidin-d2 (CisBio 610SADLA). The intensity of the fluorescence signal emitted is proportional to binding between the two proteins. The donor solution was prepared by mixing 16 nM His-tagged RAF1 in protein dilution buffer with 1:100 anti-6His Tb cryptate in PPI-Terbium detection buffer. 16 nM biotinylated RAS protein was diluted into protein dilution buffer (50 mM Tris-HCl pH 7.5, 150 mM NaCl, 0.1 mM MgCl2, 1 mM TCEP, 0.005% Tween20) and mixed with 1:2000 Streptavidin-d2 diluted in PPI-Terbium detection buffer (CisBio 61DB10RDF). 50× compound in DMSO was mixed with 16 nM KRAS-acceptor solution and incubated for 30 minutes at room temperature. After compound pre-incubation with KRAS, the RAF1 donor solution was added to the KRAS-acceptor solution and incubated for 1 hour at room temperature. The fluorescence signal emitted was monitored at 665 nm and 615 nm using an Envision multimode plate reader. The HTRF ratio (665/615) was calculated and normalized to 0% inhibition in the absence of compound and 100% inhibition in the presence of untagged RAF1 protein. […]

For a further assay, the target named is T2, wtKRAS/RAF1 (Homo sapiens, UniProt P01116).
T2 construct: KRAS (1-169) proteins were expressed in E. coli at 18° C; His6-MBP (N, cleaved yes); made in house; host or cells: E. coli
T2 sequence (P01116 1-169 isoform P01116-2): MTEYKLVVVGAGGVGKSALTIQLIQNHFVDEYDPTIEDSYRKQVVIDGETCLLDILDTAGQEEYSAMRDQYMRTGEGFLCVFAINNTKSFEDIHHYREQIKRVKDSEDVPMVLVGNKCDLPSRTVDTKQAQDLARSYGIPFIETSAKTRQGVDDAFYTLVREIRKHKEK
The experiment in a line: Protein-protein interaction (PPI) HTRF assay w.t.KRAS/RAF1. It counts as binding. The protocol: as §1, §2, §3
(In general: In TR-FRET formats the signal depends on donor and acceptor labels being close together.)

The target of assay [1] is T3, GST-tagged KRAS G12D (2-169) (Homo sapiens, UniProt P01116, G12D).
T3 construct: GST-tagged KRAS^G12D (2-169, Reaction Biology, MSC-11-539); purchased Reaction Biology MSC-11-539 (KRAS G12D); MSC-11-502 (SOS1cat)
T3 sequence (P01116 2-169 isoform P01116-2 G12D): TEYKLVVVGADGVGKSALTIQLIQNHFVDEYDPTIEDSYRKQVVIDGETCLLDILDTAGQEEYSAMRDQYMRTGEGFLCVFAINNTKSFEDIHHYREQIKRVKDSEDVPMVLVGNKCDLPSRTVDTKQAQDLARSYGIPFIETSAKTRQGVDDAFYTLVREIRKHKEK
Kind of assay: Nucleotide exchange assay (NEA), HTRF of SOS-mediated GTP-DY-647P1 binding. It counts as biochemical. The note with it: 5 nM GST-KRAS G12D, 20 nM SOScat, 150 nM GTP; compound 1 h at RT. The procedure, abridged: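 After 1 h RT preincubation of compound with KRAS, SOS1cat (20 nM final) and fluorescent GTP analog (150 nM) were added to 5 nM KRAS; HTRF (anti-GST Tb donor) followed at RT for up to 90 min. % inhibition relative to DMSO and no-SOS1 blank, 4-parameter curve fit.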

In a further assay the target is T4, wtNRAS/RAF1 (Homo sapiens, UniProt P01111).
T4 construct: (1-169); His6-SUMO (N, cleaved yes); made in house; host or cells: E. coli (printed for the KRAS and RAF1 constructs; not explicitly for NRAS)
T4 sequence (P01111 1-169): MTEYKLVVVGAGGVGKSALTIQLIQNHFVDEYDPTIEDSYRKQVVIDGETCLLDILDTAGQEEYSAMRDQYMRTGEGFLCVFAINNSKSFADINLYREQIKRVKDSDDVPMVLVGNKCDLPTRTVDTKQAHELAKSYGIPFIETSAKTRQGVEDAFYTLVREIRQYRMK
Kind of assay: Protein-protein interaction (PPI) HTRF assay w.t.NRAS/RAF1. Format: binding. The protocol: as §1, §2, §3

The next assay concerns the target T5, KRAS G12D/RAF1 (Homo sapiens, UniProt P01116, G12D).
T5 construct: KRAS (1-169) proteins were expressed in E. coli at 18° C; His6-MBP (N, cleaved yes); made in house; host or cells: E. coli
The experiment in a line: Protein-protein interaction (PPI) HTRF assay KRAS G12D/RAF1. Format: binding. To be noted: KRAS G12D/RAF1, GppNHp-loaded KRAS; 30 minutes pre-incubation. An outline of the steps:
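IC50 values come from the 665/615 HTRF ratio, scaled between no-compound (0% inhibition) and untagged RAF1 (100%). GppNHp-exchanged, biotinylated RAS (1-169) solution at 16 nM met compound for 30 min at room temperature. Then 16 nM His-tagged RAF1 (52-131) donor solution was added and incubated 1 h.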

T5 sequence (P01116 1-169 isoform P01116-2 G12D): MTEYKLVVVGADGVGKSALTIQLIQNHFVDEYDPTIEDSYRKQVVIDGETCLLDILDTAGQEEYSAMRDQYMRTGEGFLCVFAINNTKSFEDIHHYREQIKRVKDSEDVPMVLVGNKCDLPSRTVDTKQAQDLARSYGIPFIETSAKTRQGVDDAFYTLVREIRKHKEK
T1 sequence (P01116 1-169 isoform P01116-2 G12V): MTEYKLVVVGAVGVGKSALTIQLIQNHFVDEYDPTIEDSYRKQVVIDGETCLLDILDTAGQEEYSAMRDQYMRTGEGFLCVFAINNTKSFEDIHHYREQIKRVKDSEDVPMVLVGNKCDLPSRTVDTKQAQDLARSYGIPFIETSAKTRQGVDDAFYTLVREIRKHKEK

Broadly, the IC50 is the concentration that inhibits the measured activity by half. High values mean lower potency, low ones higher potency. Turning to `C[C@@]1(O)CCCN(c2nc(OC[C@@]34CCCN3C[C@H](F)C4)nc3c2COC2(CCc4c(Cl)cccc42)C3)C1` (stereo partly drawn) [Compound 23, (3R)-1-(4-chloro-2′-(((2R,7aS)-2-fluorotetrahydro-1H-pyrrolizin-7a(5H)-yl)methoxy)-2,3,5′,8′-tetrahydrospiro[indene-1,7′-pyrano[4,3-d]pyrimidin]-4′-yl)-3-methylpiperidin-3-ol], the IC50 against KRAS G12V/RAF1 is 10 to 100 µM; against wtKRAS/RAF1 it was > 100 µM; in assay [1], 1 to 20 µM; against wtNRAS/RAF1, > 100 µM; against KRAS G12D/RAF1, 10 to 100 µM.

As for `O=C1NC(=O)C2(CCCN(c3nc(OC[C@@]45CCCN4C[C@H](F)C5)nc4c3COC3(CCc5c(Cl)cccc53)C4)C2)N1` (stereo partly drawn) [Compound 24, 9-[4′-chloro-2-[[(2R,8S)-2-fluoro-1,2,3,5,6,7-hexahydropyrrolizin-8-yl]methoxy]spiro[5,8-dihydropyrano[4,3-d]pyrimidine-7,1′-indane]-4-yl]-1,3,9-triazaspiro[4.5]decane-2,4-dione], the IC50 is 10 to 100 µM on KRAS G12V/RAF1; 10 to 100 µM at wtKRAS/RAF1; 0.1 to 1 µM in assay [1]; > 100 µM against wtNRAS/RAF1; 10 to 100 µM against KRAS G12D/RAF1.
